# Values of other authors in US10196337B2, “Processes for the preparation of hydroxylated cyclohexyl compounds” (priority 2016, dated 2019).
# pIC50: −log10 of the molar value.
# Test system: A2780 ovarian cancer cell line
# Settings: compounds isolated from bark extract of Pleiogynium timorense, literature ref. 1, read-out: IC50 against the A2780 ovarian cancer cell line
row,pIC50,Compound
1,6.15,pleiogenone B [compound 2]
2,6.10,pleiogenone C [compound 3]

row,Compound,pIC50
1,"CCCCCCCC/C=C\CCCCCCC[C@]1(O)C(=O)C=C[C@H](O)[C@H]1O [compound 1, pleiogenone A]",6.10
